pIC50: −log10 of the molar value.
Columns and labels:
OAS1 splice variants = assay: RNA-Seq splice-junction reads for OAS1 splice variants in Calu-3 cells; assay type: cell-based, human; conditions: Calu-3, 10 μM, 18 h
Protocol: (§1) Transcriptome analysis for compound 1-treated Calu-3 cells RNAs were extracted using RNeasy Mini kit (QIAGEN, Hilden, Germany) from Calu-3 cells, treated with 10 μM compound 1 or 0.1% DMSO for 18 h, and applied for RNA-Seq analysis. Three technical replicates for RNA-Seq, where each experiment was independently conducted three times from a stocked total RNA. RNA-seq reads were mapped to the human genome sequences (GRCh38) using STAR (ver. 2.7.1a, https://github.com/alexdobin/STAR) with ENCODE options, using the Ensembl genome annotation (ver. 102). Raw reads were counted with bam files, and TPM values were calculated using RSEM v1.2.31 (https://github.com/deweylab/RSEM). Differentially expressed genes were identified using the method described above. Differential alternative splicing (DAS) events were analyzed with the method previously described (Sakuma et al., 2015) using the rMATS program (http://rnaseq-mats.sourceforge.net/rmats4.1.1/). DAS was defined by the following criteria: FDR<0.01, read counts≥15, and delta Percent Spliced-In (PSI)≥0.05. The DAS events were compared with the gene annotation information, the event types were then classified into events on the exons constituting the productive mRNAs, events on additional exons/regions of the productive mRNAs, and others. For characterizing gene set and transcriptome profiles, the Metascape website (https://imetascape.org/) and Gene Set Enrichment Analysis (GSEA, https://ww.gsea-maigdb.org/gsea/) were used. The same samples were also used for RT-PCR.

[1] = system: RNase L pathway (rRNA degradation)
IFNB1 = assay type: cell-based, human
CLK2 = biological target: T1, CLK2 (Homo sapiens, UniProt P49760); assay: Inhibition confirmation test for CLK (off-chip mobility shift assay); assay type: biochemical; conditions: ATP 150 μM; read-out: CLK2 inhibitory activity (IC50 value)
T1 construct: Enzyme activity was measured with off-chip mobility shift assay using purified CLK protein
T1 sequence (P49760 whole entry): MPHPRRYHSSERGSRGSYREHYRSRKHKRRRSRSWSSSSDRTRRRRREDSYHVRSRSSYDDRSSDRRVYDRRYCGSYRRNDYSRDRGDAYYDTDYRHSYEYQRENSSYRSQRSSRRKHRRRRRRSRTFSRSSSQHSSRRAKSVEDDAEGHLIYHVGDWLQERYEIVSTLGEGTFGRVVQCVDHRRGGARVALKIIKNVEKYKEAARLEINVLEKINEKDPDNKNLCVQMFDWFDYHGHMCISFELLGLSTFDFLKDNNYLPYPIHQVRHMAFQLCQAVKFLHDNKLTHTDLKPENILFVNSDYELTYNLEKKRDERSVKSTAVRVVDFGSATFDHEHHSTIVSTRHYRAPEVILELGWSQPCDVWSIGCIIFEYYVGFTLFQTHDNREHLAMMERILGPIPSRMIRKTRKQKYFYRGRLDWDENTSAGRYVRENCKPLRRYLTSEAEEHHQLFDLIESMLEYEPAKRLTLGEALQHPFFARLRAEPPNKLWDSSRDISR
Protocol: (§2) Enzyme activity was measured with off-chip mobility shift assay using purified CLK protein. DYRKtide-F peptide (1 μM) was used as a substrate, and a composition of a reaction solution used was as follows (20 mM HEPES (pH7.5), 0.01% Triton X-100, 1 mM DT7, 1% DMSO, and ATP (10 μM for CLK1, 150 μM for CLK2, and 75 μM for CLK3)). The enzyme reaction was performed at room temperature for 1 hour, and the reaction was terminated by adding QuickScout Screening Assist MSA (Carna Biosciences, Inc.). A substrate peptide and a phosphorylated peptide in the enzyme reaction solution were separated and quantified using the LabChip system (Perkin-Elmer, Waltham, MA, USA), and inhibition of CLK was evaluated by calculating a product ratio using the following formula, the substrate peptide peak height (S), and the phosphorylated peptide peak height (P).
(§3) (P/(P+S)) • P: product-derived peak • S: substrate-derived peak

CLK3 = biological target: T2, CLK3 (Homo sapiens, UniProt P49761); assay: as above; assay type: biochemical; conditions: ATP 75 μM; read-out: CLK3 inhibitory activity (IC50 value)
T2 construct: Enzyme activity was measured with off-chip mobility shift assay using purified CLK protein
T2 sequence (P49761 whole entry): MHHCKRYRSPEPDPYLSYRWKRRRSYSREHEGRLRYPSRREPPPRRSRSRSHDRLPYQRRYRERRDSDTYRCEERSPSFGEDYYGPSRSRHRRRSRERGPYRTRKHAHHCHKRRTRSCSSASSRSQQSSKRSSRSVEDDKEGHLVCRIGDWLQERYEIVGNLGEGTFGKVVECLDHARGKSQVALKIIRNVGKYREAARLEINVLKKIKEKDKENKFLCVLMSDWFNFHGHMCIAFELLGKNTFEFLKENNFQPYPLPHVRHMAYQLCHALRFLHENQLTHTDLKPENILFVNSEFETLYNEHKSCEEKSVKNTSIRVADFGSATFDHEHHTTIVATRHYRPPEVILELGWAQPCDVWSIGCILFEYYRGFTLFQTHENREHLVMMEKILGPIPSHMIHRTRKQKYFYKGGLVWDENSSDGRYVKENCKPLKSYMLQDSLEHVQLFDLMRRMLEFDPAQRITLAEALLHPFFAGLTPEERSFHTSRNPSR
Protocol: as §2, §3

[2] = system: OAS1 exon 5 splice donor (SD) sequence; assay: RNA pull-down assay with OAS1 exon 5 splice donor RNA and western blot; assay type: binding, human; conditions: Calu-3 cell lysate, 10 μM
Protocol: Calu-3 whole cell lysates were prepared using a lysis buffer containing 10 mM Tris-HCl (pH 7.4), 150 mM NaCl, 1 mM ethylenediaminetetraacetic acid, 1% Triton X-100, 0.1% sodium dodecyl sulphate, 0.25% sodium deoxycholate, and 10% glycerol with protease inhibitors (Nacalai Tesque) and phosphatase inhibitors (Sigma-Aldrich, Munich, Germany), followed by sonication, treatment with DNase I (Promega. Madison, WI, USA) at 37° C. for 5 min, and centrifugation (24,000×g at 4° C. for 15 min). The supernatant was used as the soluble fraction for the RNA-pull down assay. […] This was followed by washing the resultant thrice with tris-buffered saline and elution with Laemmli buffer. Three technical replicates for RNA pull-down assay were independently conducted, three times from a stocked cell lysate. […] Chemiluminescent signals were detected using a ChemiDoc MP Imaging System (Bio-Rad, Hercules, CA, USA).

Calu-3 cells = assay: Transcriptome analysis (RNA-Seq, differential expression and differential alternative splicing) of compound 1-treated Calu-3 cells; assay type: cell-based, human; conditions: 18 h; for delta PSI: 10 μM
Protocol: as §1

N=C1NC(=O)/C(=C/c2ccc3c(c2)CCO3)S1 [compound 1]
p42 variant suppressed (RNA-Seq) (OAS1 splice variants): 51% | p44a variant increased (RNA-Seq) (OAS1 splice variants): 130% | p44b variant increased (RNA-Seq) (OAS1 splice variants): 100% | 28S rRNA peak fold change [1]: 0.56 | concentration of decomposition products, sized 2,000-3,000 nucleotides, fold change [1]: 1.35 | transcription of IFNB1 during viral infection (IFNB1): increases | pIC50 (CLK2): 7.17 | pIC50 (CLK3): 6.94 | U1snRNP (U1-70k) binding to OAS1 exon 5 donor site [2]: enhanced | phosphorylated SRSF6 in OAS1 SD pull-down products [2]: not detected | delta PSI (Calu-3 cells; AAMP Intron between E5-E7 RI): −0.307 | delta PSI (Calu-3 cells; AC107871.1 E2-E3 SE additional exon): −0.333 | delta PSI (Calu-3 cells; AL117339.4 E2 SE): 0.318 | delta PSI (Calu-3 cells; AL136531.2 E2-E3 SE additional exon): −0.418 | delta PSI (Calu-3 cells; AL163636.1 E2 SE): 0.331 | delta PSI (Calu-3 cells; APOL1 E3 A3SS): −0.448 | delta PSI (Calu-3 cells; CABYR E4 A5SS): 0.309 | delta PSI (Calu-3 cells; CDK5RAP2 E32 SE): 0.313 | delta PSI (Calu-3 cells; CENPE E17 SE): 0.422 | delta PSI (Calu-3 cells; CFAP298 Intron between E5-E7 RI): −0.451 | delta PSI (Calu-3 cells; CLK1 E4 SE): 0.331 | delta PSI (Calu-3 cells; CLK4 E4 SE): 0.37 | delta PSI (Calu-3 cells; CLK4 Intron between E3-E4 RI): −0.346 | delta PSI (Calu-3 cells; CLK4 Intron between E4-E5 RI): −0.401 | delta PSI (Calu-3 cells; CYLD E2-E3 SE additional exon): −0.307 | differential expression, number of genes (Calu-3 cells; Calu-3, 10 μM): 98 genes | splice alterations yielding protein-coding variants, number of genes (Calu-3 cells; Calu-3, 10 μM): 63 genes | delta PSI (Calu-3 cells; DCUN1D2 E4-E5 SE additional exon): −0.438 | delta PSI (Calu-3 cells; DMD E71 SE): 0.365 | delta PSI (Calu-3 cells; DNHD1 Intron between E42-E43 RI): −0.31 | delta PSI (Calu-3 cells; DNM1 E14 SE): 0.342 | delta PSI (Calu-3 cells; DYNC1LI1 Intron between E8-E10 RI): −0.778 | delta PSI (Calu-3 cells; EPB41 E16-E17 SE additional exon): −0.301 | delta PSI (Calu-3 cells; FAAP100 E2 A5SS): −0.318 | delta PSI (Calu-3 cells; GALT Intron between E2-E6 RI): −0.374 | delta PSI (Calu-3 cells; GK E9 SE): 0.322 | delta PSI (Calu-3 cells; HAT1 Intron between E6-E8 RI): −0.584 | delta PSI (Calu-3 cells; HERC3 E17 SE): 0.309 | delta PSI (Calu-3 cells; HERC4 E17 SE): 0.38 | delta PSI (Calu-3 cells; IMPDH2 Intron between E3-E5 RI): −0.376 | delta PSI (Calu-3 cells; KANSL3 E3 A3SS): −0.309 | delta PSI (Calu-3 cells; KTN1 E41 SE): 0.304 | delta PSI (Calu-3 cells; LIMCH1 E9 SE): 0.42 | delta PSI (Calu-3 cells; LRP8 E5 SE): 0.392 | delta PSI (Calu-3 cells; LRRC6 E5 SE): 0.391 | delta PSI (Calu-3 cells; LRRC75B E1-E2 SE additional exon): −0.338 | delta PSI (Calu-3 cells; MAP3K7 E12 SE): 0.404 | delta PSI (Calu-3 cells; MCTP1 E8 SE): 0.367 | delta PSI (Calu-3 cells; METTL26 E2 SE): 0.3 | delta PSI (Calu-3 cells; MON2 E28 SE): 0.345 | delta PSI (Calu-3 cells; MPP3 E11 SE): 0.32 | delta PSI (Calu-3 cells; MSL3 Intron between E4-E6 RI): −0.485 | delta PSI (Calu-3 cells; MYO6 E34 SE): 0.405 | delta PSI (Calu-3 cells; MYOM1 E18 SE): 0.344 | delta PSI (Calu-3 cells; NAV2 E28 SE): 0.437 | delta PSI (Calu-3 cells; NEK1 E17 SE): 0.367 | delta PSI (Calu-3 cells; NGDN Intron between E4-E7 RI): −0.302 | delta PSI (Calu-3 cells; OBSL1 E12 SE): 0.369 | delta PSI (Calu-3 cells; PCGF3 E3-E4 SE additional exon): −0.318 | delta PSI (Calu-3 cells; PDE9A E5 SE): 0.378 | delta PSI (Calu-3 cells; PI4KB E2 SE): 0.421 | delta PSI (Calu-3 cells; PNKP Intron between E14-E16 RI): −0.3 | delta PSI (Calu-3 cells; PPM1K E2 SE): 0.317 | delta PSI (Calu-3 cells; RBPMS E8 SE): 0.301 | delta PSI (Calu-3 cells; RPGR E14 SE): 0.448 | delta PSI (Calu-3 cells; RPL3 Intron between E7-E9 RI): −0.381 | delta PSI (Calu-3 cells; RPL13A Intron between E2-E4 RI): −0.654 | delta PSI (Calu-3 cells; RTN4 E3 SE): 0.361 | delta PSI (Calu-3 cells; SAMD9L Partial Intron on E3 RI): 0.364 | delta PSI (Calu-3 cells; SLC25A29 E2-E3 SE additional exon): −0.314 | delta PSI (Calu-3 cells; SMARCA1 E13 SE): 0.367 | delta PSI (Calu-3 cells; SNX14 E16 SE): 0.336 | delta PSI (Calu-3 cells; SPATA20 E1-E2 SE additional exon): −0.319 | delta PSI (Calu-3 cells; TRIM2 E2 SE): 0.372 | delta PSI (Calu-3 cells; TRMU Intron between E9-E11 RI): −0.333 | delta PSI (Calu-3 cells; WNK1 E11 SE): 0.517 | delta PSI (Calu-3 cells; ZNF519 E3 A3SS): 0.316
